Assay results as given in patent US20140193827A1 (TEVA PHARMACEUTICAL INDUSTRIES, LTD., priority 2013, published 2014).

Tested on: GA-primed murine splenocytes
Experiment: ANOVA-based pattern identification method
Assay type: cell-based, mouse
Details: UP IN generic ONLY
Description: We sought to identify probes matching specific patterns of expression across experimental conditions using a technique that referred to as the ANOVA-based Pattern Identification Method.
To carry out the analysis in a general manner, we computed the 6 p-values required to do pairwise comparisons of all 4 conditions for all probes using the ANOVA1 function in MATLAB. We then identified sets of probes matching the desired pattern. In the example above, probes were identified as being only affected by PG if their 6 pairwise comparison pvalues matched the following pattern (pGA-PG<0.05, pPG-reference standard<0.05, pPG-Medium<0.05, pGAMedium>0.05, pGA-reference standard>0.05, preference standard-Medium>0.05).

## glatiramer acetate [GA]
  4930544L04RIK expression: 5.873
  4933437N03RIK expression: 6.099
  5330403O16RIK expression: 5.716
  5730472N09RIK expression: 7.649
  5830457O10RIK expression: 9.145
  5930400G23RIK expression: 5.875
  6330579M01RIK expression: 5.814
  6430709H04RIK expression: 5.642
  6720407G21RIK expression: 5.543
  8030455F02RIK expression: 5.766
  9030624J02RIK expression: 9.517
  9130011J15RIK expression: 8.444
  9330104G04RIK expression: 5.71
  9330158H04RIK expression: 5.699
  9330183F02RIK expression: 5.986
  9430003J03RIK expression: 6.25
  9430078K10RIK expression: 6.125
  9430088N01RIK expression: 6.673
  11110020P15RIK expression: 12.88
  A4GALT expression: 5.801
  A230005A19RIK expression: 5.83
  A230084A06RIK expression: 5.804
  ADAL expression: 6.367
  ADAR expression: 8.858
  ADPRHL2 expression: 6.783
  AI844366 expression: 5.793
  AKT2 expression: 5.919
  ALOX15 expression: 5.968
  ARFGAP2 expression: 9.429
  ARVCF expression: 5.727
  ATG3 expression: 5.593
  ATP9B expression: 5.92
  ATP13A1 expression: 9.018
  ATPBD3 expression: 6.569
  B930062B16RIK expression: 6.038
  BC017612 expression: 7.394
  BC031853 expression: 6.952
  BC037704 expression: 7.193
  BC040758 expression: 6.077
  BCKDK expression: 9.485
  BCL2L2 expression: 5.792
  BCL2L12 expression: 6.997
  BLCAP expression: 8.164
  BPHL expression: 5.714
  BTRC expression: 7.946
  BZRPL1 expression: 6.203
  C130040D06RIK expression: 5.711
  C230062L16RIK expression: 6.189
  C230092H20RIK expression: 5.902
  C730048C13RIK expression: 5.941
  C920004C08RIK expression: 11.38
  CAPZB expression: 5.854
  CAR6 expression: 5.68
  CBARA1 expression: 7.517
  CCL2 expression: 5.834
  CD44 expression: 5.953
  CD151 expression: 7.186
  CDC42BPB expression: 7.153
  CDCA1 expression: 5.663
  CEBPE expression: 6.204
  CENTD3 expression: 7.76
  CHGA expression: 5.756
  CHRM2 expression: 5.589
  CLCN1 expression: 5.787
  CLCNKB expression: 5.956
  CLEC4A3 expression: 6.547
  CNGA4 expression: 6.005
  CNTLN expression: 5.647
  COBLL1 expression: 7.08
  COL4A1 expression: 6.209
  COQ6 expression: 9.965
  COQ9 expression: 8.284
  COTL1 expression: 12.24
  CTNNA3 expression: 5.701
  CXCL14 expression: 5.622
  CYGB expression: 6.119
  D0HXS9928E expression: 9.848
  D11WSU47E expression: 7.068
  D130017N08RIK expression: 6.061
  D430013G08RIK expression: 5.658
  DACH1 expression: 5.874
  DBF4 expression: 8.57
  DHDH expression: 7.454
  DNAHC17 expression: 5.838
  DNM3 expression: 5.71
  DUS2L expression: 6.953
  E030016N13RIK expression: 6.199
  E330037I15RIK expression: 6.256
  EFCAB6 expression: 5.61
  EG665903 expression: 5.547
  ENAH expression: 5.919
  EPM2A expression: 5.76
  F830116E18RIK expression: 5.893
  FAHD1 expression: 7.177
  FAM123A expression: 5.862
  FBXL15 expression: 7.284
  FBXL21 expression: 5.656
  FGR expression: 6.972
  FOXE1 expression: 5.777
  FOXP4 expression: 6.284
  FRY expression: 5.74
  GABRG1 expression: 5.55
  GM628 expression: 5.746
  GPAA1 expression: 7.442
  GPR106, LGR8, GPCR expression: 5.814
  GSTK1 expression: 8.386
  GYPA expression: 6.898
  HIST2H2AA1 expression: 6.224
  HMGCL expression: 7.958
  HOXC10 expression: 6.132
  HSD3B2 expression: 5.776
  HTATIP2 expression: 8.787
  INTS7 expression: 9.311
  ISCA1 expression: 9.378
  ITFG2 expression: 8.148
  ITGA2B expression: 6.451
  JPH1 expression: 5.671
  KCNC3 expression: 5.962
  KIF17 expression: 5.897
  KLHDC3 expression: 7.853
  KREMEN2 expression: 6.223
  KRTCAP2 expression: 12.5338
  LOC223628 expression: 5.598
  LOC277049 expression: 5.915
  LOC277236 expression: 5.977
  LOC332300 expression: 6.243
  LOC380636 expression: 5.566
  LOC380723 expression: 5.812
  LOC382813 expression: 5.786
  LOC383439 expression: 5.708
  LOC385989 expression: 5.996
  LOC546088 expression: 5.782
  LOC677528 expression: 9.498
  LOC100045460 expression: 5.645
  LOC100046781 expression: 6.089
  LOC100047194 expression: 5.921
  LOC100047603 expression: 6.184
  LOC100048331 expression: 5.894
  LY96 expression: 7.768
  LYSMD4 expression: 6.812
  MAGEA9 expression: 5.817
  MAGEE2 expression: 5.808
  MAK10 expression: 9.516
  MAPKAPK2 expression: 10.02
  MCPT6 expression: 5.782
  MFSD7A expression: 5.961
  MKNK1 expression: 6.113
  MLANA expression: 5.769
  MOCO5 expression: 6.424
  MS4A7 expression: 6.506
  MTAP1S expression: 8.992
  MTRR expression: 6.473
  NAPA expression: 7.994
  NAPRT1 expression: 6.46
  NCDN expression: 8.408
  NEK4 expression: 5.969
  NFE2L1 expression: 9.753
  NFKB1 expression: 11.57
  NRXN1 expression: 5.957
  NSF expression: 9.95
  OLFR228 expression: 5.655
  OLFR312 expression: 5.726
  OLFR506 expression: 5.636
  OLFR519 expression: 5.669
  OLFR907 expression: 5.644
  OLFR1155 expression: 5.789
  PALLD expression: 5.641
  PALM expression: 6.421
  PCBD2 expression: 10.32
  PCDHAC1 expression: 5.69
  PCOLN3 expression: 7.171
  PDGFB expression: 6.243
  PEF1 expression: 9.307
  PKIA expression: 6.356
  PKIB expression: 5.803
  PLD1 expression: 5.927
  PRDX2 expression: 11.61
  PRPF3 expression: 10.04
  PSCD2 expression: 6.134
  PSG22 expression: 5.693
  PTPRF expression: 5.709
  R74862 expression: 6.215
  RALGPS2 expression: 8.862
  RASAL2 expression: 6.006
  RBPMS expression: 6.068
  REXO1 expression: 6.854
  RHOF expression: 9.948
  RHOT1 expression: 9.777
  RNF40 expression: 6.148
  RNF183 expression: 5.994
  RPUSD3 expression: 6.756
  RSC1A1 expression: 7.697
  SAMD10 expression: 6.984
  SARDH expression: 5.837
  SCAVENGER RECEPTOR expression: 6.161
  SCN1B expression: 5.97
  SFRS2IP expression: 9.233
  SGSM3 expression: 7.217
  SLC7A8 expression: 6.268
  SLC13A5 expression: 5.704
  SLC22A21 expression: 5.775
  SLC26A6 expression: 6.454
  SMG7 expression: 9.655
  SNCA expression: 5.875
  SOX7 expression: 6.163
  SPEN expression: 6.891
  SPIN2 expression: 6.355
  SYMPK expression: 8.402
  SYN1 expression: 5.985
  TAF3 expression: 7.199
  TCEAL5 expression: 5.768
  TCF7L2 expression: 5.717
  TFIP11 expression: 8.095
  TFRC expression: 9.789
  TG737RPW expression: 6.301
  THOC1 expression: 8.813
  TJAP1 expression: 8.168
  TMEM43 expression: 9.133
  TNXB expression: 5.703
  TRABD expression: 8.509
  TRIM2 expression: 5.778
  TRIM15 expression: 5.62
  TRPV4 expression: 5.895
  TRUB1 expression: 8.23
  TSNAXIP1 expression: 5.811
  TTC4 expression: 8.309
  TTC15 expression: 7.191
  UACA expression: 6.1
  UAP1 expression: 8.168
  UBE2A expression: 7.652
  UBE2E2 expression: 6.42
  UGP2 expression: 7.767
  USP10 expression: 6.432
  USP36 expression: 8.5
  V1RC23 expression: 5.692
  VGLL2 expression: 5.853
  WIZ expression: 7.206
  WNK2 expression: 5.719
  XPO5 expression: 7.592
  ZBTB6 expression: 6.029
  ZEB2 expression: 5.602
  ZFP162 expression: 7.652
  ZFP239 expression: 7.228
  ZFP563 expression: 5.809
  ZFP748 expression: 5.815
  ZMAT3 expression: 7.615
  ZMIZ1 expression: 7.099
  control_ILMN_1378661 expression: 5.718
  control_ILMN_1378677 expression: 5.994
  control_ILMN_1378911 expression: 5.7
First AMBRA1 line (r790)
  AMBRA1 expression: 5.749
First CAMK1 line (r746)
  CAMK1 expression: 6.416
Second AMBRA1 line (r797)
  AMBRA1 expression: 8.755
Second CAMK1 line (r762)
  CAMK1 expression: 5.514
